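Dose response: 5 concentrations. Exposure: 48 h. Format: 96-well plates. Endpoint: linear interpolation; highest concentration if not reached. GI50: concentration for 50% inhibition of growth. Definition used: TGI = concentration required for complete inhibition of growth.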

Common to all, as to assay: growth of human tumour cells (NCI), 48 h
The subject of assay [1] is XF 498 CNS.
For assay [2], the system named is HOP-18 NSCLC.
The test system of assay [3] is RXF-631 renal.

Consider `O=S(=O)(O)c1cc(N=Nc2cc(S(=O)(=O)O)c3ccccc3c2O)ccc1/C=C/c1ccc(N=Nc2cc(S(=O)(=O)O)c3ccccc3c2O)cc1S(=O)(=O)O`, for which, in assay [1], the GI50 is above 1000 µM and the TGI is above 1000 µM.

In the case of `Nc1ccc2ncc(Nc3ccc(F)cc3)nc2c1`, in assay [1], the TGI was above 100 µM.

In turn, `COc1cc(C(C#N)NNC(=O)Cc2ccccc2)cc(OC)c1OC` (configuration not stated) gave a TGI in assay [2] above 100 µM.

For `Nc1ccc(C(=O)NN2C(=O)C(Cl)C2c2cc(Br)cc(Br)c2O)cc1` (configuration not stated), the TGI is above 100 µM in assay [1] and 38.2 µM in assay [2].

Take `COc1ccc([C@@H]2CC(=O)NCCCNCCCCNCCCN2)cc1`: the TGI in assay [1] and in assay [2] was above 100 µM in each case.

Consider `CC(OC1CC(=O)CC2C(=O)C=CC(=O)C12)c1ccccc1` (configuration not stated), for which the TGI in assay [1] was 29.4 µM; in assay [2], 32.2 µM.

On to `O=[N+]([O-])c1cc2c(cc1O)[nH]c1cccc([N+](=O)[O-])c12`, for which the TGI in assay [1] and in assay [2] was above 100 µM in each case.

With `COc1cc2c(cc1O)[C@H](C)C(c1ccccc1OC)O2` (some centres not stated), the results for the TGI in assay [1] and in assay [2] were 24 µM and above 100 µM, respectively.

`Fc1ccc2c(c1)SC1Oc3ccccc3-c3c1c-2nn3-c1ccccc1` (configuration not stated): the TGI in assay [1], in assay [3] and in assay [2] was above 100 µM throughout.

For `Cc1cc(Cl)ccc1NC(=O)C(=O)Cc1ccc([N+](=O)[O-])c([N+](=O)[O-])c1CC(=O)C(=O)Nc1ccc(Cl)cc1C`, the TGI in assay [1] and in assay [2] was above 100 µM throughout.

Take `CN/C=C(/c1ccc(OC)cc1)C(O)c1ccc(OC)c(OC)c1` (configuration not stated): the TGI in assay [1], in assay [3] and in assay [2] was above 100 µM in each case.

In assay [2], `O=C(CSc1nnc(Cc2ccccc2)o1)Nc1ccccc1Cl` displayed a TGI above 100 µM.

As for `COc1cc2c(cc1OC)C(=O)Cc1ccc3c(c1CNCC2)OCO3`, the TGI in assay [1] and in assay [2] was above 100 µM in each case.

In the case of `Cc1nc2nn(Cc3ccccc3)cc2c(=O)o1`, the TGI in assay [1] and in assay [3] was above 100 µM throughout.

The record behind these values is PubChem BioAssay (NCI).
